This passage reports IC50 results from patent US8741932B2, “Imidazopyridine derivatives” (Piramal Enterprises Limited, priority 2009, dated 2014).

The IC50 is the concentration that inhibits the measured activity by half.

Assay [1] has as its target T1, PI3Kα kinase (Homo sapiens, UniProt P42336).
T1 construct: purchased Millipore, USA
Kind of assay: Kinase assay (PI3Kα). Conditions: read-out: IC50 (μM) for PI3K inhibition. Format: biochemical. As for the experimental part:
The kinase reaction was carried out in a 25 μL volume in a 1.5 mL microcentrifuge tube. The reaction mixture consisted of kinase buffer (10 mM Hepes, pH 7.5, 50 mM MgCl2), 20 ng PI3Kα kinase (Millipore, USA), 12.5 μg phosphotidylinositol (PI), 10 μM ATP and 1 μCi ^32γ P […]. […] The reactions were incubated at 30° C. for 20 minutes and were terminated by adding 1:1 mixture of MeOH and CHCl3. The tube contents were mixed on a vortex mixer and centrifuged at 10000 rpm for 2 minutes. 10 μL of the organic (lower) phase was spotted on to a TLC plate (silica, mobile phase: n-propanol and 2 M glacial acetic acid in 65:35 ratio). The plates were dried and exposed to an X-ray film. The bands appearing as a result of ^32γ P incorporation in PI were quantitated using the Quantityl)ne (BioRad, USA) densitometry program. PI-103 (Calbiochem, USA) was used as a standard.

In assay [2] the test system is A549. Kind of assay: Cytotoxicity assay (propidium iodide), A549. The format is cell-based. Conditions: Homo sapiens; A549 (C1a, lung); 48 hours.
Method: (§4) Cells from cell lines as mentioned in the table given below were seeded at a density of 3000 cells/well in a white opaque 96-well plate. Following incubation at 37° C./5% CO2 for a period of 18-24 hours, the cells were treated with various concentrations (stock solution was prepared in DMSO and subsequent dilutions were made in media as per ATCC guidelines) of the representative compounds of present invention (refer table 3) for a period of 48 hours. At the end of treatment, the spent culture medium was discarded, the cells were washed with 1×PBS and 200 μl of 7 μg/ml propidium iodide was added to each well. The plates were frozen at −70° C. for at least 24 hours. For analysis, the plates were brought to RT, allowed to thaw and were read in PolarStar fluorimeter with the fluorescence setting. The percentage of viable cells in the non treated set of wells was considered to be 100 and the percentage viability following treatment was calculated accordingly. IC50 values were calculated from graphs plotted using these percentages.
The test system of assay [3] is H460. Kind of assay: Cytotoxicity assay (propidium iodide), H460. Format: cell-based. Conditions: Homo sapiens, NCI-H460; H460 (C1b, lung); 48 hours.
Assay [4] concerns MDA MB 468. Kind of assay: Cytotoxicity assay (propidium iodide), MDA MB 468. The format is cell-based. Conditions: Homo sapiens; MDA MB 468 (C6b, breast); 48 hours.
Method: as §4
Assay [5] concerns MCF7. Kind of assay: Cytotoxicity assay (propidium iodide), MCF7. The format is cell-based. Conditions: Homo sapiens; MCF7 (C6c, breast); 48 hours.
Method: as §4
In assay [6] the test system is G361. Kind of assay: Cytotoxicity assay (propidium iodide), G361. Format: cell-based. Conditions: G-361; G361 (C9a, human melanoma); 48 hours.
Method: as §4
The test system of assay [7] is PC3. Kind of assay: Cytotoxicity assay (propidium iodide), PC3. Conditions: Homo sapiens, PC-3, 48 h, read-out: IC50 cytotoxicity.
Assay [8] relates to A2780. Kind of assay: Cytotoxicity assay (propidium iodide), A2780. The format is cell-based. Conditions: Homo sapiens; A2780 (C3a, ovarian); 48 hours.
For assay [9], the system named is OVCAR 3. Kind of assay: Cytotoxicity assay (propidium iodide), OVCAR 3. The format is cell-based. Conditions: Homo sapiens; OVCAR 3 (C3c, ovarian); 48 hours.
Method: as §4
The subject of assay [10] is HCT116. Kind of assay: Cytotoxicity assay (propidium iodide), HCT116. The format is cell-based. Conditions: Homo sapiens, HCT-116; HCT116 (C4b, colon); 48 hours.
For assay [11], the system named is PANC 1. Kind of assay: Cytotoxicity assay (propidium iodide), PANC 1. Format: cell-based. Conditions: Homo sapiens; PANC 1 (C5a, pancreatic); 48 hours.
Method: as §4
Assay [12] has as its system CAPAN1. Kind of assay: Cytotoxicity assay (propidium iodide), CAPAN1. The format is cell-based. Conditions: Homo sapiens, CAPAN-1; CAPAN1 (C5b, pancreatic); 48 hours.
Method: as §4
For assay [13], the system named is STAT3. Kind of assay: STAT3 bioassay (Hela Stat3-luc, luciferase). The format is cell-based. Conditions: Homo sapiens, Oncostatin M induction. As for the experimental part: Cells were seeded (Hela Stat3-luc, ATCC P/N 30-2002) in a white 96 well plate (Nunc cat.no.136101) at a density of 20,000cells/well in 179 μl volume per well (DMEM from Sigma containing 10% FCS). The plate was incubated for 24 hours at 37° C./5% CO2. The cells (wells in triplicates) were then treated with 1 μl/well of 200× stock of the desired compound concentration prepared in 100% DMSO. Curcumin was used as a standard or positive control, added 10 μg/ml in triplicate. DMSO was used as medium control (1 μl/well added in triplicates). The plate was incubated at 37° C./5% CO2 for 1 hour. 20 μl/well Oncostatin M (Oncostatin M, Human, Recombinant, E. coli, Cat.No. 496260, 10 μg from Calbiochem) was added to treated wells, induction control (in triplicate) (1000 ng/ml stock prepared in serum free medium to get final concentration 100 ng/ml). The plate was then incubated for 7-8 hours at 37° C./5% CO2 for induction. A typical assay would consist of triplicate of medium control, triplicate of induction control, triplicate of positive/standard control and test compounds at desired concentration in triplicates. For termination Luciferase assay protocol was followed where the culture medium was removed from all the wells.
200 μl well of PBS was added to remove traces of medium and compound. The PBS was discarded. 40 μl/well of 1× lysis buffer was added to all the wells. The plate was incubated at RT for 20 minutes with intermittent shaking. 100 μl/well of LAB reagent was added to all the wells in dark. {LAB reagent for 1 plate=8 ml Luciferase assay buffer (LAB)+1 ml Coenzyme A (Sigma cat no. C3019) (2.1 mg/ml stock in LAB)+530 μL of ATP (Sigma cat.no.A2383) (5.85 mg/ml stock in LAB)+1 ml luciferin reagent (Promega cat no.245355) (2 mg/ml stock in LAB, protect from light)}.
The luminescence was immediately read on polar star. The values were expressed as percentage inhibition, in terms of treated values to that STAT3 (induction control). IC50 values were calculated from graphs using these percentages.

In assay [14] the test system is IL-6. Kind of assay: Human monocyte assay, LPS-stimulated IL-6. Format: cell-based. Conditions: Monocyte; human monocytes, 1 μg/ml LPS, 5 hours. The essentials: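 Adherent human PBMC-derived monocytes (2×10^4/well) were cultured 48 h, preincubated 30 min with compound or 0.5% DMSO, then stimulated with 1 μg/ml E. coli LPS for 5 h at 37° C. TNF-α and IL-6 in supernatants were measured by ELISA.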

The test system of assay [15] is TNF-α. Kind of assay: Human monocyte assay, LPS-stimulated TNF-α. Format: cell-based. Conditions: human monocytes, 1 μg/ml LPS, 5 hours. As for the experimental part: The assay was designed as in the reference, Physiol.
Peripheral blood mononuclear cells (hPBMC) were harvested from human blood and suspended in RPMI 1640 culture medium containing 10% FCS, 100 U/mL penicillin and […] streptomycin (assay medium). Monocytes in the hPBMCs were counted using a Coulter Counter following which the cells were resuspended at 2×10^5 monocytes/mL. A cell suspension containing 2×10^4 monocytes was aliquoted per well of a 96-well plate. Subsequently, the hPBMCs were incubated for 4-5 hours at 37° C., 5% CO2 (During the incubation, the monocytes adhered to the bottom of 96-well plastic culture plate). Following the incubation, the non-adherent lymphocytes were washed with assay medium and the adherent monocytes re-fed with assay medium. After a 48-hour incubation period (37° C., 5% CO2), monocytes were pretreated with various concentrations of representative compounds of present invention (refer to table 6 and 7) (prepared in DMSO) or vehicle (0.5% DMSO) for 30 minutes and stimulated with 1 μg/ml LPS (Escherchia coli 0111:B4, Sigma Chemical Co., St. Louis, Mo.). The incubation was continued for 5 hours at 37° C., 5% CO2. Supernatants were harvested, assayed for IL-6 and TNF-α by ELISA as described by the manufacturer (BD Biosciences, USA). Dexamethasone (10 μM) was used as standard for this assay. […] Biological results for both IL-6 and TNFα are indicated in Table 6 and Table 7 respectively.

In assay [16] the test system is IL-6. Kind of assay: Synovial tissue assay, IL-6. The format is cell-based. Conditions: Homo sapiens; synovial tissue cells from rheumatoid arthritis patients, 16 hours. The procedure:
(§1) The assay was designed as in the reference, Lancet, 2(8657), 244-7, Jul.
(§2) Stock Solution: Compounds of the present invention were dissolved in DMSO to obtain a stock solution of 20 mM.
(§3) Synovial tissue was obtained from rheumatoid arthritis patients undergoing knee replacement surgery. The tissue was minced into small pieces and digested in RPMI medium containing 100 U/ml penicillin-G, 100 μg/ml streptomycin, 50 ng/ml amphotericin B (GIBCO; USA), 1.33 mg/ml collagenase Type I (Worthington Biochemical Corporation, New Jersey), 0.5 μg/ml DNAse Type I (Sigma Aldrich; St. Louis, Mo.) and 8.33 U/ml heparin (Biological E. Limited, India) for 3 hours at 37° C., 5% CO2. The digested tissue was filtered through a membrane (mesh size 70 micron; Sigma Aldrich). Subsequently, the cells were washed 3 times and resuspended in complete medium (RPMI supplemented with 5% FBS and 5% human serum-AB+) at a concentration of 1×10^6 cells/ml. All cell washes in this assay were performed using Rosewall Park Memorial Institute (RPMI)-1640 medium (JRH; Australia). For the experiment, 100 μl of cell suspension was added to the wells of a 96-well culture plate. Following cell plating, 100 μl of the culture medium and 1 μl of various concentrations (0.01, 0.03, 0.1, 0.3, 1, 3, 10, 30 and 100 μM) of the compounds of present invention dissolved in DMSO were added to the cells. The final concentration of DMSO was adjusted to 0.5%. For experimental purposes, 1 μl of […] concentrated solution of the compounds of present invention were dissolved in 200 μl cell suspension to achieve a final concentration of 0.01, 0.03, 0.1, 0.3, 1, 3, 10, 30 and 100 μM. The vehicle (0.5% DMSO) was used as control. 10 μM dexamethasone (Sigma Aldrich) or 1 μM 7-hydroxyfluorinide (7HF) were used as standards for the experiments. The plates were incubated for 16 hours at 37° C., 5% CO2. Subsequently, the supernatants were harvested and stored at −70° C. The amounts of TNF-α, IL-6 and interleukin-8 (IL-8) in the supernatants were assayed using OptiEIA ELISA sets, (BD BioSciences Pharmingen). The protocol followed was as per manufacturers instructions. […] The cytotoxicity of test compounds in synovial cells was assessed by MTS assay. Absorbance was measured at 490 nm. Percent cytotoxicity was calculated by the equation: % Cytotoxicity=(A−B)/A×100 where, A is the absorbance of cells treated with DMSO alone and B is the absorbance of cells treated with the test article.

For assay [17], the system named is TNF-α. Kind of assay: Synovial tissue assay, TNF-α. Conditions: Homo sapiens; synovial tissue cells from rheumatoid arthritis patients, 16 hours. The format is cell-based. The procedure:
as §1, §2, §3

Assay [18] deals with IL-8. Kind of assay: Synovial tissue assay, IL-8. Format: cell-based. Conditions: Homo sapiens; synovial tissue cells from rheumatoid arthritis patients, 16 hours. The procedure: as §1, §2, §3

T1 sequence (P42336 whole entry): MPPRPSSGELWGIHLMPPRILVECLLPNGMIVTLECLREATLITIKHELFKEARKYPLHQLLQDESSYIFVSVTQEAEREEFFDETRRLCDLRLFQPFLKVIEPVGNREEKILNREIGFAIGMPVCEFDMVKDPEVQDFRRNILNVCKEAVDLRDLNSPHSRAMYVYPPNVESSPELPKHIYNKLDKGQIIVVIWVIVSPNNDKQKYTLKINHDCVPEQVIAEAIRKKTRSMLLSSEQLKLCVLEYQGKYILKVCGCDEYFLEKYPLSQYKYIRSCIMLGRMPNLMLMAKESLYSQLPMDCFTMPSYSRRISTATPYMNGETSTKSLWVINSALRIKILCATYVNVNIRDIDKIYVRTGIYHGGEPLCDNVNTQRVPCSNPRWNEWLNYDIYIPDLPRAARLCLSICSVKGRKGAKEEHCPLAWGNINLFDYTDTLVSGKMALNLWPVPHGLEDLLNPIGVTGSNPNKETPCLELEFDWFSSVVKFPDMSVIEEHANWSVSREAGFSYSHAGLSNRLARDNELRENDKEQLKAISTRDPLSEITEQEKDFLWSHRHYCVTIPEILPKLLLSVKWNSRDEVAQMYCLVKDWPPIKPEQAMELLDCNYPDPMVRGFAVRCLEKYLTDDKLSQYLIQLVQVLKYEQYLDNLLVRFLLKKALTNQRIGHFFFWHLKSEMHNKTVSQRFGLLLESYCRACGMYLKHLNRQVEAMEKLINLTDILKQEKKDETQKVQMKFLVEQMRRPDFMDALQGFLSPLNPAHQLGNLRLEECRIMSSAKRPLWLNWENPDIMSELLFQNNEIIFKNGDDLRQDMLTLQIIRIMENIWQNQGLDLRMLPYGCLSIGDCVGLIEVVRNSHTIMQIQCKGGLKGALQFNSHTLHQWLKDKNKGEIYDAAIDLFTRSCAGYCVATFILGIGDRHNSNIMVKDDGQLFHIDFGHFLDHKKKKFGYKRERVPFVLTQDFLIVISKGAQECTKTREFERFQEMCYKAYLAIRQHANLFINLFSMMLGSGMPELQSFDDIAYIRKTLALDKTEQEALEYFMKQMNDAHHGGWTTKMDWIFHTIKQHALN
T1 sequence (P27986 whole entry partner): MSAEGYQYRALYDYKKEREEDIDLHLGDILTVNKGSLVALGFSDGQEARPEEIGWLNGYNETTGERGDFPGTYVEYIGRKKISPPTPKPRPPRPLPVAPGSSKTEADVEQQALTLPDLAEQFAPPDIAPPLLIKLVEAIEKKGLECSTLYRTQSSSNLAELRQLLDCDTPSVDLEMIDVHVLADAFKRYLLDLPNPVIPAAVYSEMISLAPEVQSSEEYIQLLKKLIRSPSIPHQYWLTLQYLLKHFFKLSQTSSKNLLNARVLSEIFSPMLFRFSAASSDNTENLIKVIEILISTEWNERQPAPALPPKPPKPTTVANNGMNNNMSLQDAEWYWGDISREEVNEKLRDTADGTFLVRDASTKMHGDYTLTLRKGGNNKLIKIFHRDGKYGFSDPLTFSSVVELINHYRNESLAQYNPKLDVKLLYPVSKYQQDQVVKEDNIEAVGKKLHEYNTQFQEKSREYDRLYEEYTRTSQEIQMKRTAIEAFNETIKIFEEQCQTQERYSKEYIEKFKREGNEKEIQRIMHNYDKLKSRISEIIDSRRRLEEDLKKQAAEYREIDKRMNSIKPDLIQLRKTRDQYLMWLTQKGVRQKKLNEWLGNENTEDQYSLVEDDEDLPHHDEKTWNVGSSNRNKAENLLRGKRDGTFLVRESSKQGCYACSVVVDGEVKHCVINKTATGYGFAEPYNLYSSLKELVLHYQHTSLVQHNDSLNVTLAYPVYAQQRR

`CN(N=Cc1cnc2ccc(-c3cccnc3)cn12)S(=O)(=O)c1ccc(F)c(Cl)c1` [Example 18, 3-Chloro-4-fluoro-N-methyl-N′-((6-(pyridine-3-yl)imidazo[1,2-a]pyridine-3-yl)methylene) benzenesulfonohydrazide]: the IC50 in assay [1] is 0.01 to 0.5 µM; in assay [2], over 5 µM; in assay [3], over 5 µM; in [4] it was over 5 µM; in [5], over 5 µM; in assay [6] it was over 5 µM. The IC50 in assay [7] is over 5 µM.
Consider `CN(N=Cc1cnc2ccc(-c3cccnc3)cn12)S(=O)(=O)c1ccccc1` [Example 1, N-methyl-N′-((6-(pyridin-3-yl)imidazo[1,2-a]pyridin-3-yl)methylene)benzenesulfonohydrazide], for which the IC50 in [2], in [3], in [8], in [9], in assay [10] and in assay [11] was 0.01 to 5 µM in each case. Besides, the IC50 in assay [12] fell in the range of 0.01 to 5 µM; in [13], 5 to 10 µM; in assay [14], 0.001 to 5 µM; in assay [15] it was 0.001 to 1 µM; in assay [7], 0.01 to 5 µM.
Regarding `Cc1cc(C)c(S(=O)(=O)N(C)N=Cc2cnc3ccc(-c4cccnc4)cn23)c(C)c1` [Example 27, N, 2,4,6-tetramethyl-N′-((6-(pyridine-3-yl)imidazo[1,2-a]pyridine-3-yl)methylene)benzenesulfonohydrazide], the IC50 in assay [1] is 0.01 to 0.5 µM; in assay [2], over 5 µM; in assay [3], over 5 µM; in assay [4], over 5 µM; in [5], over 5 µM; in assay [6], over 5 µM. Also, the IC50 in [7] is over 5 µM.
As to `CN(N=Cc1cnc2ccc(-c3cccnc3)cn12)S(=O)(=O)c1cccc2cccnc12` [Example 30, N-methyl-N′-((6-(pyridine-3-yl)imidazo[1,2-a]pyridine-3-yl)methylene) quinoline-8-sulfonohydrazide], the IC50 was over 5 µM in assay [2]; over 5 µM in [3]; over 5 µM in [4]; over 5 µM in assay [5]; over 5 µM in assay [6]; at least 5 µM in assay [14]. Moreover, the IC50 in [7] was over 5 µM.
For `CN(N=Cc1cnc2ccc(-c3cccnc3)cn12)S(=O)(=O)c1c(F)cccc1F` [Example 14, 2,6-Difluoro-N-methyl-N′-((6-(pyridine-3-yl)imidazo[1,2-a]pyridine-3-yl)methylene) benzenesulfonohydrazide], the IC50 was in the range of 0.01 to 0.5 µM in assay [1]; 5 to 10 µM in assay [13]; 0.001 to 5 µM in [14]; 0.001 to 1 µM in assay [15]; 0.01 to 0.3 µM in assay [16]; 0.01 to 0.3 µM in assay [17]. Moreover, the IC50 in [18] was 0.3 to 3 µM.
